Holding throughout (type): physicochemical
Data set [1] is described as follows: Solvent scope of N,N′-dialkylaldaramides (1%) or N,N′-dialkylpentaramides (1%): gelation/solubility behaviour in solvents. Details: key: g = gelation; s = soluble; p = precipitates; c = crystallizes; ns = not soluble; v = viscous; g* = unstable gel, precipitates; cg = crystalline gel. The conditions noted are these: 1% gelling agent. From the text:
It will be understood that the use of the present gelling agents or thickeners to prepare a gel or to thicken a composition is also encompassed by the invention. As is well known, gelling behavior of compounds or compositions is highly unpredictable. […] Preferably, the gelling phenomenon is thermo reversible.
(§1) Preferred examples include aromatic and nonaromatic hydrocarbons, alcohols, ethers, esters, aldehydes, alkanoic acids, epoxides, amines, halogenated hydrocarbons, silicon oils, vegetable oils, phosphoric esters, sulfoxides, water and mixtures thereof. In order to obtain a gel, the gelling agent or thickener is preferably mixed with the composition to be transformed to a gel in an amount of between 0.01 and 50 wt. %, based on the weight of the composition. In a preferred embodiment, the mixture of the gelling agent or thickener and the composition is heated to allow for an even better gel formation or thickening. Typically, the heating will involve raising the temperature of the mixture to about 30-175° C. until a clear solution is obtained. In an alternative embodiment, the gelling agent is first dissolved in a polar or apolar solvent and then added to or sprayed into a composition or solvent to be converted into a gel.
Solvent scope of N,N′-dialkylaldaramides (1%) or N,N′-dialkylpentaramides (1%) 1-24 refers to the compounds prepared in Examples 1-23)

Data set [2] in a line: Cold gelation: addition of a solution of the gelling agent (10% in NMP, 0.05 ml) to an organic solution (0.5 ml). Further details: key: g = gelation; s = soluble; p = precipitates; c = crystallizes; ns = not soluble; v = viscous; g* = unstable gel, precipitates; cg = crystalline gel. The conditions noted are these: for Cold gelation in 1,2-dichloroethane: 0.05 ml added to 0.5 ml 1,2-dichloroethane; for Cold gelation in Toluene: 0.05 ml added to 0.5 ml Toluene; for Cold gelation in cyclohexane: 0.05 ml added to 0.5 ml cyclohexane; for Cold gelation in methyl laurate: 0.05 ml added to 0.5 ml methyl laurate; for Cold gelation in n-butyl acetate: 0.05 ml added to 0.5 ml n-butyl acetate.
From the text: as §1
Addition of a solution of the gelling agent (10% in NMP, 0.05 ml) to an organic solution (0.5 ml, “cold gelation”)

Data set [3] in a line: Gelation of N,N′-dialkyladaramides (1%) in mixtures of solvents. Details: key: g = gelation; s = soluble; p = precipitates; c = crystallizes; ns = not soluble; v = viscous; g* = unstable gel, precipitates; cg = crystalline gel. Conditions: 1% gelling agent.
From the text: as §1
Gelation of N,N′-dialkyladaramides (1%) in Mixtures of Solvents

Data set [4] can be described thus: Maximum gelator concentration. From the text:
Maximum gelator concentration of 5 (C6-Glu-C6) and 15 (C12-Glu-C12)

Bounds are passed on as bounds.

For “di-8-pentadecyl D-glucaramide [Example 18]”, in data set [1], the “Gelation/solubility behaviour in 1,2-dichloroethane” value is “s”, the “Gelation/solubility behaviour in 2-octanol” value was “s”, the “Gelation/solubility behaviour in 2-propanol” value is recorded as “s” and the “Gelation/solubility behaviour in Cyclohexane” value is listed as “s”. Moreover, in data set [1], the “Gelation/solubility behaviour in Dimethylsulfoxide” value is listed as “s”, the “Gelation/solubility behaviour in Ethanol” value is given as “s”, the “Gelation/solubility behaviour in Hexadecane” value was “s” and the “Gelation/solubility behaviour in Toluene” value is given as “s”. Moreover, in data set [1], the “Gelation/solubility behaviour in Water” value is given as “p”, the “Gelation/solubility behaviour in n-butylacetate” value is listed as “s” and the “Gelation/solubility behaviour in p-xylene” value is “s”. In data set [1] (2-methoxyethanol), the “Gelation/solubility behaviour in 2-methoxyethanol” value is given as “s”. The “Gelation/solubility behaviour in methyl benzoic acid” value in data set [1] (methyl benzoic acid) is listed as “s”. Also, in data set [1] (methyl laurate), the “Gelation/solubility behaviour in methyl laurate” value is recorded as “s”. Besides, in data set [1] (silicon oil), the “Gelation/solubility behaviour in silicon oil” value is on record as “s”. Moreover, in data set [2], the “Cold gelation in 1,2-dichloroethane” value is listed as “s”, the “Cold gelation in Toluene” value is reported as “s”, the “Cold gelation in cyclohexane” value is reported as “s” and the “Cold gelation in methyl laurate” value is “s”. Further, in data set [2], the “Cold gelation in n-butyl acetate” value is reported as “s”.

As for `CCCCCCCCCCCCNC(=O)[C@@H](O)[C@@H](O)[C@H](O)[C@@H](O)C(=O)NCCCCCCCCCCCC` [Example 12, didodecyl D-glucaramide], in data set [1], the “Gelation/solubility behaviour in 1,2-dichloroethane” value is given as “p”, the “Gelation/solubility behaviour in 2-octanol” value is “ns”, the “Gelation/solubility behaviour in 2-propanol” value was “ns” and the “Gelation/solubility behaviour in Cyclohexane” value is “ns”. Moreover, in data set [1], the “Gelation/solubility behaviour in Dimethylsulfoxide” value is recorded as “s”, the “Gelation/solubility behaviour in Ethanol” value is given as “p”, the “Gelation/solubility behaviour in Hexadecane” value is “ns” and the “Gelation/solubility behaviour in Toluene” value was “ns”. For the same compound, in data set [1], the “Gelation/solubility behaviour in Water” value is given as “ns”, the “Gelation/solubility behaviour in n-butylacetate” value is given as “ns” and the “Gelation/solubility behaviour in p-xylene” value is given as “ns”. For the same compound, in data set [2], the “Cold gelation in 1,2-dichloroethane” value is “p”, the “Cold gelation in Toluene” value was “p”, the “Cold gelation in cyclohexane” value is “p” and the “Cold gelation in methyl laurate” value was “p”. In addition, in data set [2], the “Cold gelation in n-butyl acetate” value was “p”. Also, in data set [3], the Gelation in cyclohexane entry is “ns”, the “Gelation in Dioxane” value is “c”, the “Gelation in H2O” value is given as “ns” and the “Gelation in dioxane/H2O 1:1” value was “ns”. Moreover, in data set [3], the “Gelation in dioxane/H2O 1:2” value is on record as “ns”, the “Gelation in dioxane/H2O 2:1” value is listed as “c” and the “Gelation in dioxane/H2O 3:1” value is given as “c”.

Consider `CC(C)=CCCC(C)CCNC(=O)[C@@H](O)[C@@H](O)[C@H](O)[C@@H](O)C(=O)NCCC(C)CCC=C(C)C` (stereo partly drawn) [Example 11, dicitronellyl D-glucaramide], for which, in data set [1], the “Gelation/solubility behaviour in 1,2-dichloroethane” value is reported as “s”, the “Gelation/solubility behaviour in 2-octanol” value was “s”, the “Gelation/solubility behaviour in 2-propanol” value is “s” and the “Gelation/solubility behaviour in Cyclohexane” value is listed as “g*”. Moreover, in data set [1], the “Gelation/solubility behaviour in Dimethylsulfoxide” value is listed as “s”, the “Gelation/solubility behaviour in Ethanol” value is given as “s”, the “Gelation/solubility behaviour in Hexadecane” value was “p” and the “Gelation/solubility behaviour in Toluene” value was “p”. Moreover, in data set [1], the “Gelation/solubility behaviour in Water” value was “c”, the “Gelation/solubility behaviour in n-butylacetate” value is reported as “p” and the “Gelation/solubility behaviour in p-xylene” value was “p”. In addition, in data set [3], the Gelation in cyclohexane result is recorded as “g*”, the “Gelation in Dioxane” value is recorded as “s”, the “Gelation in H2O” value is “c” and the “Gelation in dioxane/H2O 1:1” value is given as “p”. Besides, in data set [3], the “Gelation in dioxane/H2O 1:2” value was “p”, the “Gelation in dioxane/H2O 2:1” value is reported as “s” and the “Gelation in dioxane/H2O 3:1” value is given as “s”. In addition, in data set [3] (cyclohexane/dioxane 1:1), the “Gelation in cyclohexane/dioxane 1:1” value is reported as “s”.

Turning to dicyclohexyl galactaramide [Example 7], in data set [1], the “Gelation/solubility behaviour in 1,2-dichloroethane” value is recorded as “ns”, the “Gelation/solubility behaviour in 2-octanol” value was “ns”, the “Gelation/solubility behaviour in 2-propanol” value was “c” and the “Gelation/solubility behaviour in Cyclohexane” value is “ns”. Moreover, in data set [1], the “Gelation/solubility behaviour in Dimethylsulfoxide” value is on record as “c”, the “Gelation/solubility behaviour in Ethanol” value is listed as “c”, the “Gelation/solubility behaviour in Hexadecane” value is “ns” and the “Gelation/solubility behaviour in Toluene” value is given as “ns”. For the same compound, in data set [1], the “Gelation/solubility behaviour in Water” value was “ns”, the “Gelation/solubility behaviour in n-butylacetate” value is reported as “ns” and the “Gelation/solubility behaviour in p-xylene” value is recorded as “ns”.

`CCCCNC(=O)[C@@H](O)[C@@H](O)[C@H](O)[C@H](O)C(=O)NCCCC` [Example 2, dibutyl D-mannaramide]: in data set [1], the “Gelation/solubility behaviour in 1,2-dichloroethane” value is reported as “Ns”, the “Gelation/solubility behaviour in 2-octanol” value is “Ns”, the “Gelation/solubility behaviour in Cyclohexane” value is “Ns” and the “Gelation/solubility behaviour in Hexadecane” value is listed as “Ns”. In data set [1], the “Gelation/solubility behaviour in Toluene” value is “Ns”, the “Gelation/solubility behaviour in Water” value is listed as “Ns”, the “Gelation/solubility behaviour in n-butylacetate” value is on record as “Ns” and the “Gelation/solubility behaviour in p-xylene” value is recorded as “Ns”.

As for `O=C(NC1CCCCC1)[C@@H](O)[C@@H](O)[C@H](O)[C@@H](O)C(=O)NC1CCCCC1` [Example 5, dicyclohexyl D-glucaramide], in data set [1], the “Gelation/solubility behaviour in 1,2-dichloroethane” value is recorded as “cg”, the “Gelation/solubility behaviour in 2-octanol” value is given as “cg”, the “Gelation/solubility behaviour in 2-propanol” value is recorded as “cg” and the “Gelation/solubility behaviour in Dimethylsulfoxide” value is given as “cg”. Moreover, in data set [1], the “Gelation/solubility behaviour in Ethanol” value is reported as “cg”, the “Gelation/solubility behaviour in Hexadecane” value is “ns” and the “Gelation/solubility behaviour in Water” value is on record as “ns”. In addition, the “Maximum gelator concentration in 1,2-dichloroethane” value in data set [4] (1,2-dichloroethane) was below 5%. For the same compound, in data set [4] (Toluene), the “Maximum gelator concentration in Toluene” value is on record as below 2.5%. The “Maximum gelator concentration in cyclohexane” value in data set [4] (cyclohexane) is below 5%. Also, in data set [4] (methyl laurate), the “Maximum gelator concentration in methyl laurate” value is recorded as below 2.5%. The “Maximum gelator concentration in n-butylacetate” value in data set [4] (n-butylacetate) was below 2.5%. Moreover, in data set [4] (silicon oil (Dow Corning 702)), the “Maximum gelator concentration in silicon oil (Dow Corning 702)” value is reported as below 2.5%. In data set [2], the “Cold gelation in 1,2-dichloroethane” value is recorded as “c”, the “Cold gelation in Toluene” value is given as “c”, the “Cold gelation in cyclohexane” value is recorded as “p” and the “Cold gelation in methyl laurate” value is reported as “c”. Besides, the “Cold gelation in n-butyl acetate” value in data set [2] is “c”.

Take `CO[C@@H]([C@H](O)[C@H](O)C(=O)NC1CCCCC1)[C@@H](O)C(=O)NC1CCCCC1` [Example 20, 3-O-methyl-dicyclohexyl D-glucaramide]: in data set [1], the “Gelation/solubility behaviour in 1,2-dichloroethane” value was “c”, the “Gelation/solubility behaviour in 2-octanol” value was “p”, the “Gelation/solubility behaviour in 2-propanol” value is recorded as “c” and the “Gelation/solubility behaviour in Cyclohexane” value was “ns”. For the same compound, in data set [1], the “Gelation/solubility behaviour in Dimethylsulfoxide” value is “s”, the “Gelation/solubility behaviour in Ethanol” value is on record as “c”, the “Gelation/solubility behaviour in Hexadecane” value was “ns” and the “Gelation/solubility behaviour in Toluene” value is on record as “p”. For the same compound, in data set [1], the “Gelation/solubility behaviour in Water” value is recorded as “ns”, the “Gelation/solubility behaviour in n-butylacetate” value is listed as “p” and the “Gelation/solubility behaviour in p-xylene” value is reported as “p”.

(Values after patent publication US6930203B2, “Gelling agents or thickeners” (Applied NanoSystems B.V., priority 2001, dated 2005).)
